Results on 2 compounds are retold here after patent publication US20220249426A1, “INHIBITORS OF THE STING PATHWAY FOR THE TREATMENT OF HIDRADENITIS SUPPURATIVA” (INSERM (INSTITUT NATIONAL DE LA SANTÉ ET DE LA RECHERCH …, priority 2019, published 2022).

What all share (type): cell-based, human
Series [1] relates to HS-ORS. In words: mRNA quantification of ISGs in HS-ORS treated with drugs targeting the IFN pathway. Conditions: compared to ORS treated with DMSO. The procedure: FIG. 2: Outer root sheath (ORS) cells from two patients were treated with two drugs (A. Ruxolitinib B. H151) targeting the interferon (IFN) pathway. mRNA levels of MX1, IP10, IFI27 and OAS1 in ORS. HS-ORS (n=2) were treated with two drugs during 24 hours before performing mRNA quantification.
ORS cells were lysed with RLT Plus Buffer (Qiagen). The RNA was extracted using the RNeasy Plus Mini Kit (Qiagen) according to the manufacturer's protocol then converted into cDNA using the QuantiTect Reverse Transcription Kit (Qiagen) for IFNβ detection and the High-Capacity cDNA Reverse Transcription Kit (Applied Biosystems, Thermo Fisher Scientific) for the expression of other genes.
For real-time PCR analysis of the cDNA samples thus obtained, we prepared custom-made primer sets using the Brilliant II SYBR green QPCR master mix (Agilent Technologies) or Quantitect SYBR Green PCR Kit (Qiagen) according to the manufacturers' protocols. Real-time PCR was performed on a MX3000P device (Agilent). The GAPDH or OAZ1 mRNA level was used for normalization. The relative expression (ΔCt) of mRNAs of each gene was computed using GAPDH or OAZ-1 expression as the reference.
We used two drugs targeting IFN pathway. HS-ORS (n=2) were treated with drugs during 24 hours before performing mRNA quantification. Four ISGs: MX1, OAS1, IFI27 and IP10 were analyzed.

Series [2] deals with HS-ORS cells. In words: IFN-β and ISG mRNA quantification after siRNA transfection of HS-ORS cells. The following applies: compared to scramble siRNA. The source says: (§1) FIG. 1: IFI16-STING pathway induces interferon (IFN) production in outer root sheath (ORS) cells from patients with hidradenitis suppurativa (HS). (A) Relative mRNA levels of IFN-β and IP10 in HS-ORS and HD-ORS cells. **P<0.01; ns, nonsignificant; Mann-Whitney rank-sum test. (B) Nonparametric Spearman correlation analysis of the expression of IFN-β genes and percentage of cells in phase S in HS-ORS cell populations. (C) Levels of IFN-β mRNA in HS-ORS (n=10) and HD-ORS (n=4) cell populations transfected with siSTING for 2 days before IFN-β mRNA quantification. (D) IFN-β mRNA levels in HS-ORS cell populations (n=3) transfected with siRNA-cGAS or siRNA-IFI16 for 2 days before IFN-β mRNA quantification. (E) DNA fiber spreading analysis of fork progression in HS-ORS cell populations (n=2) transfected with siSTING for 2 days before DNA fiber spreading. ****P<0.0001, Mann-Whitney rank-sum test. […] Quantification of phospho-IRF3 signal intensity in HS-ORS (n=7) and HD (n=5). […]
(§2) ORS cells were lysed with RLT Plus Buffer (Qiagen). The RNA was extracted using the RNeasy Plus Mini Kit (Qiagen) according to the manufacturer's protocol then converted into cDNA using the QuantiTect Reverse Transcription Kit (Qiagen) for IFNβ detection and the High-Capacity cDNA Reverse Transcription Kit (Applied Biosystems, Thermo Fisher Scientific) for the expression of other genes. […]

For series [3], the system named is HD-ORS cells. In words: IFN-β and ISG mRNA quantification after siRNA transfection of HD-ORS cells. Conditions: compared to scramble siRNA.
Description: as §1, §2

Series [4] has as its system HS-ORS. In words: Western blot analysis (phospho-IRF3, cGAS protein) after siRNA transfection of HS-ORS. Conditions: compared to scramble siRNA. From the text: (§3) FIG. 1: IFI16-STING pathway induces interferon (IFN) production in outer root sheath (ORS) cells from patients with hidradenitis suppurativa (HS). (A) Relative mRNA levels of IFN-β and IP10 in HS-ORS and HD-ORS cells. **P<0.01; ns, nonsignificant; Mann-Whitney rank-sum test. (B) Nonparametric Spearman correlation analysis of the expression of IFN-β genes and percentage of cells in phase S in HS-ORS cell populations. (C) Levels of IFN-β mRNA in HS-ORS (n=10) and HD-ORS (n=4) cell populations transfected with siSTING for 2 days before IFN-β mRNA quantification. (D) IFN-β mRNA levels in HS-ORS cell populations (n=3) transfected with siRNA-cGAS or siRNA-IFI16 for 2 days before IFN-β mRNA quantification. (E) DNA fiber spreading analysis of fork progression in HS-ORS cell populations (n=2) transfected with siSTING for 2 days before DNA fiber spreading. ****P<0.0001, Mann-Whitney rank-sum test. (F) Western blot analysis of the levels of phospho-IRF3 in ORS transfected with siSTING or siCtrl. Quantification of phospho-IRF3 signal intensity in HS-ORS (n=7) and HD (n=5).
(§4) The following siRNAs were used: siSTING (CUGCAUCCAUCCAUCCCGUdTdT; SEQ ID NO:1, Sigma #Hs01_00031038, Sigma, St Louis, […].), siIFI16 (L-020004-00-0005, ON-TARGETplus Human IFI16 siRNA SMARTpool, Horizon Discovery, Waterbeach, UK), and sicGAS (L-015607-02-0005, ON-TARGETplus Human MB21D1 siRNA SMARTpool, Horizon Discovery). […]

Series [5] concerns HD-ORS. The series can be described thus: Western blot analysis of phospho-IRF3 after siRNA transfection of HD-ORS. Conditions: compared to scramble siRNA.
Description: as §3, §4
In general terms: Immunoblotting shows a protein as a band on a membrane.

Series [6] relates to HS-ORS cell populations. The series can be described thus: DNA fiber spreading analysis of fork progression after siSTING transfection. Conditions: both HS-ORS cell populations (n=2); siSTING for 2 days before DNA fiber spreading.
Description: as §1
DNA fiber spreading was performed as described by Jackson and Pombo (16). […] The DNA fiber images thus acquired were analyzed using MetaMorph Microscopy Automation and Image Analysis Software (Molecular Devices, San Jose, Calif.) and the results were evaluated statistically by applying the two-sided Mann-Whitney rank-sum test with GraphPad Prism software (GraphPad, La Jolla, Calif.).

[7] abbreviates: first patient, ORS treated 24 hours.

In the case of `CCc1ccc(NC(=O)Nc2c[nH]c3ccccc23)cc1` [H151, N-(4-Ethylphenyl)-N′-1H-indol-3-yl-urea], in series [1] (HS-ORS (n=2), 24 hours), the “levels of IFI27 transcripts” value is “reduced levels”, the “levels of IP10 transcripts” value was “reduced levels”, the “levels of MX1 transcripts” value was “reduced levels” and the “levels of OAS1 transcripts” value was “reduced levels”. Besides, in series [1] (setting [7]), the “levels of IFI27 transcripts” value was “reduced levels”, the “levels of IP10 transcripts” value is on record as “reduced levels”, the “levels of MX1 transcripts” value is “reduced levels” and the “levels of OAS1 transcripts” value is “reduced levels”.

As to “siSTING: siRNA CUGCAUCCAUCCAUCCCGUdTdT; SEQ ID NO:1, Sigma #Hs01_00031038 (sense CUGCAUCCAUCCAUCCCGUTT; dTdT overhang, further chemistry not given here)”, the IFN-β transcript levels entry in series [2] (HS-ORS cells, siRNA 10 μM, 2 days) was “lower”; in series [3] (HD-ORS cells, siRNA 10 μM, 2 days) it was “not associated with a difference”. In addition, the figures for the “ISGs transcripts (OAS1 and IP-10)” value in series [2] (ORS from HS patients) and in series [3] (ORS from HD) were “decrease” and “no change”, respectively. Besides, the “IRF3 phosphorylation at Ser396 (pIRF3)” value in series [4] is “inhibition”; in series [5], “no modification”. Besides, the IdU track length result in series [6] is “decreased to the length observed in HD-ORS cells”.
